compound: NC(=O)CCCCC1CCSS1 [lipoamide]; experiment: thermal stability z-score vs DMSO; higher = more thermally stabilized by treatment; settings: HeLa; lipoamide concentration 100 µM; arsenate co-treatment: 1 mM arsenate 1 h
Protocol: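 Cellular thermal proteome profiling in HeLa cells. Cells were treated with 100 µM lipoamide for 1 h, with or without 1 mM arsenate for a further 1 h, then heated to ten temperatures (37-66.3 °C), and soluble protein was quantified by TMT mass spectrometry relative to 0.1% DMSO controls. The thermal stability score (sum of log2 fold changes minus the abundance score) was transformed to a z-score; mean of n = 3 experiments.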
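Also: each temperature applied for 3 min, abundance score taken as mean log2 fold change at the two lowest temperatures, z-score obtained by mean subtraction and division by SD.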

UniProt P39687, sequence (P39687 whole entry): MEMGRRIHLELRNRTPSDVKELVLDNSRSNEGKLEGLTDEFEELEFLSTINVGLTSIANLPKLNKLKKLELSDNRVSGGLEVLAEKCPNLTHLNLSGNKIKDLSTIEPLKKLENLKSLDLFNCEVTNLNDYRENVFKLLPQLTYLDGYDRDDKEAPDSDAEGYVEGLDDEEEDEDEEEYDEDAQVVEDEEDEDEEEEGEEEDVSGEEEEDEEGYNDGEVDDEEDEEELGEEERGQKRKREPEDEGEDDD
UniProt P38919, sequence (P38919 whole entry): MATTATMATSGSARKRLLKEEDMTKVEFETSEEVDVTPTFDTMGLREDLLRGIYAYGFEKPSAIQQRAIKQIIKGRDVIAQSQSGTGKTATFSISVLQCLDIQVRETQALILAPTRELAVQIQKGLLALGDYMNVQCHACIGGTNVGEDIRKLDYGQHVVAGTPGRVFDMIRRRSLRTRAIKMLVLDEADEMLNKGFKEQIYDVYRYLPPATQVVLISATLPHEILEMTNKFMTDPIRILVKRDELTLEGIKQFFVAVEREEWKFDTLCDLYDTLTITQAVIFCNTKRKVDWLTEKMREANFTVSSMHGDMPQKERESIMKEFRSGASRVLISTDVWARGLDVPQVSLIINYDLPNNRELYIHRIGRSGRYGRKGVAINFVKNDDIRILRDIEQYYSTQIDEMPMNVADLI
UniProt O00458, sequence (O00458 whole entry): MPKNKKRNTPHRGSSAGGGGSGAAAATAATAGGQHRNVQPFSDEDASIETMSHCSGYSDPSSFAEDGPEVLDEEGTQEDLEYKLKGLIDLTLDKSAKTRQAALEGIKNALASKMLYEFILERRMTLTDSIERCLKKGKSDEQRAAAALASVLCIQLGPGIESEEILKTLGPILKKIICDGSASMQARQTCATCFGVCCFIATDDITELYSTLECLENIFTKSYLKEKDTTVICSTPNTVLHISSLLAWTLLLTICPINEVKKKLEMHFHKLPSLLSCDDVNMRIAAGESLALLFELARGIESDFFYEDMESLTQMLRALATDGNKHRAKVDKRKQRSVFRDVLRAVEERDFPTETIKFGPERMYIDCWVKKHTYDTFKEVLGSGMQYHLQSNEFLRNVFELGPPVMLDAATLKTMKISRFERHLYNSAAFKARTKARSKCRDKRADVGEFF
UniProt Q99439, sequence (Q99439 whole entry): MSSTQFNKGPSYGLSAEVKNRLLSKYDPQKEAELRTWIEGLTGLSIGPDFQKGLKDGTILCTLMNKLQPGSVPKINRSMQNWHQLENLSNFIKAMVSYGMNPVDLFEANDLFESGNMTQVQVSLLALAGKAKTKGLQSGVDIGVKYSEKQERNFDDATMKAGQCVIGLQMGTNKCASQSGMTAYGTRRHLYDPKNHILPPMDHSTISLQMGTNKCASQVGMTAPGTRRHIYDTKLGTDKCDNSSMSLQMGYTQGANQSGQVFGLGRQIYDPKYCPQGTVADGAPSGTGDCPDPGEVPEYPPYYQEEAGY
UniProt P49755, sequence (P49755 whole entry): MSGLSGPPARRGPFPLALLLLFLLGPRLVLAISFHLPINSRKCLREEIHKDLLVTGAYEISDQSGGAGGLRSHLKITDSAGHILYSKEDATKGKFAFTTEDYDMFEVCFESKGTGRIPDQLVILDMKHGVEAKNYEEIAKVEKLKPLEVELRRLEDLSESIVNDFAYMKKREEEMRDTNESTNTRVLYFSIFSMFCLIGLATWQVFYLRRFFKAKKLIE
UniProt Q8IVB5, sequence (Q8IVB5 whole entry): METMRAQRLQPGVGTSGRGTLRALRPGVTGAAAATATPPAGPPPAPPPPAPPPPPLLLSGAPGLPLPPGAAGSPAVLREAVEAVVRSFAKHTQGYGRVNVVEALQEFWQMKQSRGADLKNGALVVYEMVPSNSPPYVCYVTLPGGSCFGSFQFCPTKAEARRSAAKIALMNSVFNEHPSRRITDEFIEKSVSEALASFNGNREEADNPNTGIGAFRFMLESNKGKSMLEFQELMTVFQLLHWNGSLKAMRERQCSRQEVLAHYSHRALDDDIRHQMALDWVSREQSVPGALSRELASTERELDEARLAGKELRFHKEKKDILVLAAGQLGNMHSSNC
UniProt Q9NP61, sequence (Q9NP61 whole entry): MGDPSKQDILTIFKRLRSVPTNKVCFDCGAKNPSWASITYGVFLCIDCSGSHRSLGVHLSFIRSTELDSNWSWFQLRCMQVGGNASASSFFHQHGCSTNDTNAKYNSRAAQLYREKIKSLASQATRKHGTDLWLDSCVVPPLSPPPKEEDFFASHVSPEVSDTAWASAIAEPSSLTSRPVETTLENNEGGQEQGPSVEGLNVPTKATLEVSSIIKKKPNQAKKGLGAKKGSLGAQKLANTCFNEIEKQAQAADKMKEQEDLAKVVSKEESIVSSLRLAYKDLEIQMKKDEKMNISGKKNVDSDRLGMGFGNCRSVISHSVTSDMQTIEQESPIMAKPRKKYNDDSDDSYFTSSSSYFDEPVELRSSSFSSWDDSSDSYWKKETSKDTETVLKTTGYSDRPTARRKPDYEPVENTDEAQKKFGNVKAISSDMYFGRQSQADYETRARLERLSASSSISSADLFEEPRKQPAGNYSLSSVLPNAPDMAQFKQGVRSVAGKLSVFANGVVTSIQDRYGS
UniProt Q8NB91, sequence (Q8NB91 whole entry): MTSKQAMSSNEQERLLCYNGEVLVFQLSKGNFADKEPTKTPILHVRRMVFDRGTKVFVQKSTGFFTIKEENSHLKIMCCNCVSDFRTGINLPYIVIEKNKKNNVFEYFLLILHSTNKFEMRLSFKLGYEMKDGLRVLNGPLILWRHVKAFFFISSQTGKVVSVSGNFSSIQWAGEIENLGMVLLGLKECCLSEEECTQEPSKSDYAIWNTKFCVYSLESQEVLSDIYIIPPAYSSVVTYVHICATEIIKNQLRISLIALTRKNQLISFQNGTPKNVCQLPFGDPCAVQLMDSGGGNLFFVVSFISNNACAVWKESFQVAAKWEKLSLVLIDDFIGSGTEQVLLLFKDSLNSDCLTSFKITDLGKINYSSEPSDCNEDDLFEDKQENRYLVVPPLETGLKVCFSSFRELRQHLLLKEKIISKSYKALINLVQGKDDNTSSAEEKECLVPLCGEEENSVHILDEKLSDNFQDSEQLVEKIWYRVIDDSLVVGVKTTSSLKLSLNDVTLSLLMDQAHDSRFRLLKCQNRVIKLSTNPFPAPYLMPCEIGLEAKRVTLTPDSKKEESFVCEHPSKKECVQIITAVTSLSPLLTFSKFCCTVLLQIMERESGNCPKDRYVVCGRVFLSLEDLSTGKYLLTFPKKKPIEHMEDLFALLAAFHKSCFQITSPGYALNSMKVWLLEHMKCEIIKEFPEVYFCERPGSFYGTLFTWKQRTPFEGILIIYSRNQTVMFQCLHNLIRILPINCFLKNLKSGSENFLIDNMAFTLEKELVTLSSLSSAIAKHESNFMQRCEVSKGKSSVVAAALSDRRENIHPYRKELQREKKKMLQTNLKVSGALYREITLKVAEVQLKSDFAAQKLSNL
UniProt Q86X29, sequence (Q86X29 whole entry): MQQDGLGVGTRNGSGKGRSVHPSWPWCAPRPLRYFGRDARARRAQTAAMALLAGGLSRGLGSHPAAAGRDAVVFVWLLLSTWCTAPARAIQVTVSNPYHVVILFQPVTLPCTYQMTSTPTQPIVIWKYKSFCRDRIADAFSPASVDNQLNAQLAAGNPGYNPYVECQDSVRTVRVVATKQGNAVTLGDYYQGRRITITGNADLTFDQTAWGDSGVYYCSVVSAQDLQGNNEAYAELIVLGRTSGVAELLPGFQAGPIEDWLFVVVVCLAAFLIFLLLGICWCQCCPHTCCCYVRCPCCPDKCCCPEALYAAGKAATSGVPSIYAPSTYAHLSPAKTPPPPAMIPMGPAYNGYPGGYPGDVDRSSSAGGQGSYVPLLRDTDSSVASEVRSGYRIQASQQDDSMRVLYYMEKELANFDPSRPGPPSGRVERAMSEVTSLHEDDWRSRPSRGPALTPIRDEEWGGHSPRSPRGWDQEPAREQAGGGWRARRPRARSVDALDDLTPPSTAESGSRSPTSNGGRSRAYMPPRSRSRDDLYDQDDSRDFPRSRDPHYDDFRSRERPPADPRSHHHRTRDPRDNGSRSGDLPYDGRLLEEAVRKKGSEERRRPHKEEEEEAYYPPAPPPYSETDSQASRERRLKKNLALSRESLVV
UniProt Q2PZI1, sequence (Q2PZI1 whole entry): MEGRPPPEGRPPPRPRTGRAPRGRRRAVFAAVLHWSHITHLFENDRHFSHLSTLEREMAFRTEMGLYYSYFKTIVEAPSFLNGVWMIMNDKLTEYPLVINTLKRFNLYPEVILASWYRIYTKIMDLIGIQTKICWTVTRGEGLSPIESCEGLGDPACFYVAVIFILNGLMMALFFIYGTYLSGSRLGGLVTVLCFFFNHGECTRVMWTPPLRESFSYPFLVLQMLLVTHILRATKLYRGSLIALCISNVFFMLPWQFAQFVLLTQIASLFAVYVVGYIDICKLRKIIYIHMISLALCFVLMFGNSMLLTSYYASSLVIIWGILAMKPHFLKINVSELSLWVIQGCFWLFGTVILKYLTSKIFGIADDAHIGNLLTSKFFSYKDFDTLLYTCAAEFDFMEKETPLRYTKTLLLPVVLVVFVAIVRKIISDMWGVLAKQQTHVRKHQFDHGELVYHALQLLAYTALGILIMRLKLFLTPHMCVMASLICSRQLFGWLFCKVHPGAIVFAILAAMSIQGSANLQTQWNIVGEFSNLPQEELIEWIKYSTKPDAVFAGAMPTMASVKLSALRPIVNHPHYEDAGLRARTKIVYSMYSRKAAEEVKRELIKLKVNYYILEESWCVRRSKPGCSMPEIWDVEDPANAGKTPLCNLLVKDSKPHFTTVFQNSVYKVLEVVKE
UniProt Q9Y5M8, sequence (Q9Y5M8 whole entry): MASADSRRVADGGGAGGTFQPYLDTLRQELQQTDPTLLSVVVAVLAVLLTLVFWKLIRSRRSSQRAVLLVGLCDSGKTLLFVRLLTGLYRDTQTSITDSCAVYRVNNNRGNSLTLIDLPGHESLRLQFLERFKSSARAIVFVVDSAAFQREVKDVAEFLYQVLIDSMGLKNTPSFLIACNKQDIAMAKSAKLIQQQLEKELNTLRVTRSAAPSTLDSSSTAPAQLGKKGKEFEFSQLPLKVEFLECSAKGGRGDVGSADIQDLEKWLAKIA

Target	thermal stability z-score
KIAA1524 (UniProt Q8TCG1)	-0.00458
FIBP (UniProt O43427)	0.453
GLMN (UniProt Q92990)	-0.559
HIST1H4A (UniProt P62805)	0.954
METTL2B (UniProt Q6P1Q9)	-0.019
TBC1D9B (UniProt Q66K14)	-0.357
TPD52 (UniProt P55327)	2.04
GPAT4 (UniProt Q86UL3)	-0.413
EPS15 (UniProt P42566)	-0.339
ADSSL1 (UniProt Q8N142)	0.111
MTIF2 (UniProt P46199)	-0.77
LZIC (UniProt Q8WZA0)	0.558
HSF1 (UniProt Q00613)	-0.332
FBXL18 (UniProt Q96ME1)	0.241
NFKB2 (UniProt Q00653)	-0.498
DNAJC19 (UniProt Q96DA6)	0.522
PPP1R37 (UniProt O75864)	-0.153
HMGB3 (UniProt O15347)	0.138
COX5A (UniProt P20674)	2.24
DPY19L1 (UniProt Q2PZI1)	-0.0328
KIAA0101 (UniProt Q15004)	0.253
PFDN2 (UniProt Q9UHV9)	0.967
MRPS24 (UniProt Q96EL2)	-0.239
LSR (UniProt Q86X29)	0.221

Target	thermal stability z-score
IFRD1 (UniProt O00458)	-0.177
FANCB (UniProt Q8NB91)	-0.147
FAM174A (UniProt Q8TBP5)	0.351
ABCB7 (UniProt O75027)	0.117
ZNF24 (UniProt P17028)	0.0764
ARHGAP5 (UniProt Q13017)	0.182
RBM26 (UniProt Q5T8P6)	-0.0221
PRDX2 (UniProt P32119)	0.0679
SLC25A28 (UniProt Q96A46)	0.65
CYB5B (UniProt O43169)	1.05
CCDC43 (UniProt Q96MW1)	0.776
RAB5C (UniProt P51148)	0.345
EIF4A3 (UniProt P38919)	-0.155
TMF1 (UniProt P82094)	-0.551
CPSF3L (UniProt Q5TA45)	0.622
TCF25 (UniProt Q9BQ70)	-0.802
GALNT10 (UniProt Q86SR1)	-0.462
TLN1 (UniProt Q9Y490)	0.266
TMED10 (UniProt P49755)	-1.53
HMGN3 (UniProt Q15651)	1.36
PDS5B (UniProt Q9NTI5)	0.839
LIX1L (UniProt Q8IVB5)	-0.241
DCAF6 (UniProt Q58WW2)	-0.747
MEA1 (UniProt Q16626)	1.48

Target	thermal stability z-score
ANAPC7 (UniProt Q9UJX3)	0.306
ANP32A (UniProt P39687)	0.324
ATAD3B (UniProt Q5T9A4)	-0.338
FAM105A (UniProt Q9NUU6)	-0.00141
CAB39 (UniProt Q9Y376)	0.454
MPRIP (UniProt Q6WCQ1)	0.435
MAPK1 (UniProt P28482)	0.246
CNN2 (UniProt Q99439)	0.281
SNUPN (UniProt O95149)	-0.201
KIF14 (UniProt Q15058)	0.0801
ARFGAP3 (UniProt Q9NP61)	0.116
LAMA3 (UniProt Q16787)	0.341
CEP78 (UniProt Q5JTW2)	-0.104
S100A13 (UniProt Q99584)	0.758
MMACHC (UniProt Q9Y4U1)	-0.0163
FAM83D (UniProt Q9H4H8)	-0.472
LSM6 (UniProt P62312)	0.895
CBSL|CBS	-1.81
SRPRB (UniProt Q9Y5M8)	-0.411
NACC1 (UniProt Q96RE7)	-0.376
BOP1 (UniProt Q14137)	-1.64
RPS17 (UniProt P08708)	0.31
SNX12 (UniProt Q9UMY4)	-0.128

same assay, conditions: HeLa; lipoamide concentration 100 µM; arsenate co-treatment: none

Target	thermal stability z-score
KIAA1524 (UniProt Q8TCG1)	-0.0673
FIBP (UniProt O43427)	0.0779
GLMN (UniProt Q92990)	-0.296
HIST1H4A (UniProt P62805)	0.814
METTL2B (UniProt Q6P1Q9)	-0.11
TBC1D9B (UniProt Q66K14)	-0.158
TPD52 (UniProt P55327)	2.1
GPAT4 (UniProt Q86UL3)	0.478
EPS15 (UniProt P42566)	-0.0217
ADSSL1 (UniProt Q8N142)	0.223
MTIF2 (UniProt P46199)	-1.59
LZIC (UniProt Q8WZA0)	0.781
HSF1 (UniProt Q00613)	-0.199
FBXL18 (UniProt Q96ME1)	0.119
NFKB2 (UniProt Q00653)	0.158
DNAJC19 (UniProt Q96DA6)	0.211
PPP1R37 (UniProt O75864)	-0.186
HMGB3 (UniProt O15347)	0.323
COX5A (UniProt P20674)	1.82
DPY19L1 (UniProt Q2PZI1)	-0.259
KIAA0101 (UniProt Q15004)	0.245
PFDN2 (UniProt Q9UHV9)	1.21
MRPS24 (UniProt Q96EL2)	-0.0199
LSR (UniProt Q86X29)	-0.243

Target	thermal stability z-score
IFRD1 (UniProt O00458)	-0.444
FANCB (UniProt Q8NB91)	-0.547
FAM174A (UniProt Q8TBP5)	0.647
ABCB7 (UniProt O75027)	0.0859
ZNF24 (UniProt P17028)	-0.217
ARHGAP5 (UniProt Q13017)	-0.703
RBM26 (UniProt Q5T8P6)	0.172
PRDX2 (UniProt P32119)	0.162
SLC25A28 (UniProt Q96A46)	0.529
CYB5B (UniProt O43169)	0.411
CCDC43 (UniProt Q96MW1)	0.412
RAB5C (UniProt P51148)	0.119
EIF4A3 (UniProt P38919)	0.154
TMF1 (UniProt P82094)	-0.475
CPSF3L (UniProt Q5TA45)	0.702
TCF25 (UniProt Q9BQ70)	-0.429
GALNT10 (UniProt Q86SR1)	0.0888
TLN1 (UniProt Q9Y490)	0.266
TMED10 (UniProt P49755)	-1.03
HMGN3 (UniProt Q15651)	0.402
PDS5B (UniProt Q9NTI5)	0.426
LIX1L (UniProt Q8IVB5)	-0.219
DCAF6 (UniProt Q58WW2)	-0.879
MEA1 (UniProt Q16626)	1.28

Target	thermal stability z-score
ANAPC7 (UniProt Q9UJX3)	0.186
ANP32A (UniProt P39687)	0.51
ATAD3B (UniProt Q5T9A4)	-0.0604
FAM105A (UniProt Q9NUU6)	-0.0135
CAB39 (UniProt Q9Y376)	0.641
MPRIP (UniProt Q6WCQ1)	0.401
MAPK1 (UniProt P28482)	-0.0239
CNN2 (UniProt Q99439)	0.653
SNUPN (UniProt O95149)	-1.48
KIF14 (UniProt Q15058)	0.0434
ARFGAP3 (UniProt Q9NP61)	0.294
LAMA3 (UniProt Q16787)	-0.204
CEP78 (UniProt Q5JTW2)	-0.0338
S100A13 (UniProt Q99584)	1.06
MMACHC (UniProt Q9Y4U1)	-0.159
FAM83D (UniProt Q9H4H8)	-0.432
LSM6 (UniProt P62312)	0.267
CBSL|CBS	-1.33
SRPRB (UniProt Q9Y5M8)	0.511
NACC1 (UniProt Q96RE7)	-0.495
BOP1 (UniProt Q14137)	-0.108
RPS17 (UniProt P08708)	-0.0463
SNX12 (UniProt Q9UMY4)	-0.00318

compound: O=[As]([O-])(O)O.[K+] [potassium arsenate]; experiment: as above; settings: HeLa; arsenate concentration 1 mM
Protocol: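 Cellular thermal proteome profiling in HeLa cells treated with 1 mM arsenate for 1 h (DMSO pretreatment), heated to ten temperatures (37-66.3 °C). Soluble protein was quantified by TMT mass spectrometry relative to DMSO controls; the thermal stability score was transformed to a z-score; mean of n = 3 experiments.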

Target	thermal stability z-score
KIAA1524 (UniProt Q8TCG1)	0.662
FIBP (UniProt O43427)	0.125
GLMN (UniProt Q92990)	-0.181
HIST1H4A (UniProt P62805)	2.61
METTL2B (UniProt Q6P1Q9)	-0.0568
TBC1D9B (UniProt Q66K14)	-0.401
TPD52 (UniProt P55327)	1.35
GPAT4 (UniProt Q86UL3)	-0.231
EPS15 (UniProt P42566)	-0.469
ADSSL1 (UniProt Q8N142)	0.237
MTIF2 (UniProt P46199)	-0.789
LZIC (UniProt Q8WZA0)	0.906
HSF1 (UniProt Q00613)	-0.185
FBXL18 (UniProt Q96ME1)	-0.711
NFKB2 (UniProt Q00653)	0.523
DNAJC19 (UniProt Q96DA6)	0.253
PPP1R37 (UniProt O75864)	-0.0199
HMGB3 (UniProt O15347)	0.0296
COX5A (UniProt P20674)	1.36
DPY19L1 (UniProt Q2PZI1)	-0.259
KIAA0101 (UniProt Q15004)	0.49
PFDN2 (UniProt Q9UHV9)	0.132
MRPS24 (UniProt Q96EL2)	-0.497
LSR (UniProt Q86X29)	-0.177

Target	thermal stability z-score
IFRD1 (UniProt O00458)	1.9
FANCB (UniProt Q8NB91)	-1.04
FAM174A (UniProt Q8TBP5)	1.14
ABCB7 (UniProt O75027)	0.456
ZNF24 (UniProt P17028)	-0.114
ARHGAP5 (UniProt Q13017)	-0.265
RBM26 (UniProt Q5T8P6)	-0.536
PRDX2 (UniProt P32119)	-0.431
SLC25A28 (UniProt Q96A46)	1.81
CYB5B (UniProt O43169)	0.322
CCDC43 (UniProt Q96MW1)	0.864
RAB5C (UniProt P51148)	0.552
EIF4A3 (UniProt P38919)	-0.492
TMF1 (UniProt P82094)	-0.126
CPSF3L (UniProt Q5TA45)	0.178
TCF25 (UniProt Q9BQ70)	-0.542
GALNT10 (UniProt Q86SR1)	0.557
TLN1 (UniProt Q9Y490)	-0.682
TMED10 (UniProt P49755)	0.275
HMGN3 (UniProt Q15651)	0.493
PDS5B (UniProt Q9NTI5)	-0.362
LIX1L (UniProt Q8IVB5)	-0.301
DCAF6 (UniProt Q58WW2)	-0.72
MEA1 (UniProt Q16626)	0.711

Target	thermal stability z-score
ANAPC7 (UniProt Q9UJX3)	0.251
ANP32A (UniProt P39687)	0.197
ATAD3B (UniProt Q5T9A4)	0.607
FAM105A (UniProt Q9NUU6)	0.337
CAB39 (UniProt Q9Y376)	-0.245
MPRIP (UniProt Q6WCQ1)	0.452
MAPK1 (UniProt P28482)	-0.175
CNN2 (UniProt Q99439)	0.356
SNUPN (UniProt O95149)	-0.43
KIF14 (UniProt Q15058)	-0.00998
ARFGAP3 (UniProt Q9NP61)	0.0267
LAMA3 (UniProt Q16787)	0.34
CEP78 (UniProt Q5JTW2)	-0.165
S100A13 (UniProt Q99584)	0.67
MMACHC (UniProt Q9Y4U1)	-0.12
FAM83D (UniProt Q9H4H8)	0.641
LSM6 (UniProt P62312)	-0.309
CBSL|CBS	0.256
SRPRB (UniProt Q9Y5M8)	1.49
NACC1 (UniProt Q96RE7)	-0.423
BOP1 (UniProt Q14137)	0.0419
RPS17 (UniProt P08708)	-0.614
SNX12 (UniProt Q9UMY4)	0.108

Source: the supplement of paper PMC12463676, “Small-molecule dissolution of stress granules by redox modulation benefits ALS models” (Nature Chemical Biology, 2025)
